Experimental data published in ChEMBL document CHEMBL1201862, “PubChem BioAssay data set” (2004).
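1) Cells in 96-well plates. 2) Compound, 48 h, 5 concentrations. 3) Linear interpolation between surrounding doses. 4) Unreached endpoint = highest concentration. GI50: concentration for 50% inhibition of growth.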 Calls of active or inactive are those of the source. Rule as the data show it: active = GI50 up to about 1.1 µM and inactive = higher.

Experiments:
Assay in all cases: growth of human tumour cells (NCI), 48 h
786-0 = test system: 786-0
CCRF-CEM = test system: CCRF-CEM
COLO 205 = test system: COLO 205
HCT-15 = test system: HCT-15
HOP-92 = test system: HOP-92
Hs-578T = test system: Hs-578T
IGROV-1 = test system: IGROV-1
KM12 = test system: KM12
M14 = test system: M14
MDA-N = test system: MDA-N
NCI-H226 = test system: NCI-H226
NCI-H23 = test system: NCI-H23
OVCAR-5 = test system: OVCAR-5
RPMI-8226 = test system: RPMI-8226
SF-539 = test system: SF-539
SK-MEL-2 = test system: SK-MEL-2
SR = test system: SR
SW-620 = test system: SW-620
T47D = test system: T47D
U-251 = test system: U-251

SMILES | GI50 (786-0) | GI50 (CCRF-CEM) | GI50 (COLO 205) | GI50 (HCT-15) | GI50 (HOP-92) | GI50 (Hs-578T) | GI50 (IGROV-1) | GI50 (KM12) | GI50 (M14) | GI50 (MDA-N) | GI50 (NCI-H226) | GI50 (NCI-H23) | GI50 (OVCAR-5) | GI50 (RPMI-8226) | GI50 (SF-539) | GI50 (SK-MEL-2) | GI50 (SR) | GI50 (SW-620) | GI50 (T47D) | GI50 (U-251)
Cc1cc2c(c(C(=O)NCCC(=O)O)c1)Oc1c(cc(C)cc1C(=O)NCCC(=O)O)S2 | > 100 µM (inactive) | > 100 µM (inactive) | > 100 µM (inactive) | > 100 µM | > 100 µM (inactive) | > 100 µM (inactive) | > 100 µM (inactive) | > 100 µM (inactive) | > 100 µM (inactive) | > 100 µM (inactive) | > 100 µM (inactive) | > 100 µM (inactive) | > 100 µM (inactive) | > 100 µM (inactive) | > 100 µM (inactive) | > 100 µM (inactive) | > 100 µM (inactive) | > 100 µM (inactive) | > 100 µM (inactive) | > 100 µM (inactive)
CC[C@](C)(O)C(=O)O[C@H]1C(=O)O[C@@H]2C[C@H]3C(C)=CC(=O)[C@@H](O)[C@]3(C)[C@H]3[C@@]4(O)OC[C@]32[C@@H]1[C@@H](C)[C@H]4O [GLAUCARUBINONE] | 0.146 µM (active) | 0.05 µM (active) | 0.815 µM (active) | 0.0885 µM | 0.049 µM (active) | 0.167 µM (active) | 0.05 µM (active) | 0.0604 µM (active) | 0.107 µM (active) | 0.425 µM (active) | 0.113 µM (active) | 0.0796 µM (active) | 0.658 µM (active) | 0.0548 µM (active) | 0.05 µM (active) | 0.0625 µM (active) | 0.0453 µM (active) | 0.075 µM (active) | 0.176 µM (active) | 0.05 µM (active)
Cc1cc(S(=O)(=O)Nc2nnc3c(Cl)cc(C(F)(F)F)cn23)c(S)cc1Cl | 57.1 µM (inactive) | > 84.7 µM (inactive) | > 68.4 µM (inactive) | 58.1 µM | > 100 µM (inactive) | > 64.9 µM (inactive) | 50.5 µM (inactive) | 39.3 µM (inactive) | > 83.8 µM (inactive) | 99.8 µM (inactive) | 23.3 µM (inactive) | 95.1 µM (inactive) | > 100 µM (inactive) | > 100 µM (inactive) | 35.7 µM (inactive) | 48.4 µM (inactive) | 66.8 µM (inactive) | > 68.4 µM (inactive) | 37.2 µM (inactive) | 36 µM (inactive)
CSc1nc(SC)c2c(C)cn(COCCOC(=O)c3ccccc3)c2n1 | > 100 µM (inactive) | 64.1 µM (inactive) | > 100 µM (inactive) | > 100 µM | 41.5 µM (inactive) | 54.1 µM (inactive) | > 100 µM (inactive) | > 100 µM (inactive) | > 100 µM (inactive) | > 100 µM (inactive) | > 100 µM (inactive) | > 100 µM (inactive) | > 100 µM (inactive) | 69.5 µM (inactive) | 27.3 µM (inactive) | > 100 µM (inactive) | > 100 µM (inactive) | > 100 µM (inactive) | 32.8 µM (inactive) | > 100 µM (inactive)
COC(=O)[C@H](C)NC(=O)C1(CNC(=O)[C@H](C)NC(=O)OC(C)(C)C)Cc2ccccc2-c2ccccc2C1 | 19.6 µM (inactive) | 18.7 µM (inactive) | 22.3 µM (inactive) | 15.7 µM | 5.51 µM (inactive) | > 37.2 µM (inactive) | 16.3 µM (inactive) | 16.1 µM (inactive) | > 45.9 µM (inactive) | 26.1 µM (inactive) | 24.5 µM (inactive) | 18 µM (inactive) | 19.9 µM (inactive) | 7.59 µM (inactive) | 27 µM (inactive) | 40 µM (inactive) | 20 µM (inactive) | 26.2 µM (inactive) | 21.8 µM (inactive) | 17.9 µM (inactive)
CC1(C)S[C@@H]2[C@H](NC(=O)C3(N)CCCCC3)C(=O)N2[C@H]1C(=O)O [CYCLACILLIN] | > 100 µM (inactive) | > 100 µM (inactive) | > 100 µM (inactive) | > 100 µM | > 100 µM (inactive) | > 100 µM (inactive) | > 100 µM (inactive) | > 100 µM (inactive) | > 100 µM (inactive) | > 100 µM (inactive) | > 100 µM (inactive) | > 100 µM (inactive) | > 100 µM (inactive) | > 100 µM (inactive) | > 100 µM (inactive) | > 100 µM (inactive) | > 100 µM (inactive) | > 100 µM (inactive) | > 100 µM (inactive) | > 100 µM (inactive)
Nn1c(Sc2nc3ccccc3c(=O)n2N)nc2ccccc2c1=O | 4.72 µM (inactive) | 0.94 µM (active) | 13.8 µM (inactive) | 3.37 µM | 6.92 µM (inactive) | 17.1 µM (inactive) | 6.5 µM (inactive) | 11.7 µM (inactive) | 1.8 µM (inactive) | 4.04 µM (inactive) | 1.71 µM (inactive) | 1.91 µM (inactive) | 16.5 µM (inactive) | 3.5 µM (inactive) | 2.48 µM (inactive) | 3.24 µM (inactive) | 2.02 µM (inactive) | 2.29 µM (inactive) | 5.09 µM (inactive) | 7.03 µM (inactive)
CCOC(=O)c1nc2cc(N3CCOCC3)c(F)cc2[nH]c1=O | > 100 µM (inactive) | 91.8 µM (inactive) | > 100 µM (inactive) | > 100 µM | 37.9 µM (inactive) | 33.4 µM (inactive) | 39 µM (inactive) | > 100 µM (inactive) | > 100 µM (inactive) | > 100 µM (inactive) | 20.3 µM (inactive) | > 100 µM (inactive) | 64.3 µM (inactive) | > 100 µM (inactive) | > 100 µM (inactive) | > 100 µM (inactive) | 54.2 µM (inactive) | > 100 µM (inactive) | > 100 µM (inactive) | > 100 µM (inactive)
O=P(O)(O)CN1CCNCCN(CP(=O)(O)O)CCN(CP(=O)(O)O)CCNCC1 | > 100 µM (inactive) | > 100 µM (inactive) | 44200 µM (inactive) | > 100 µM | > 100 µM (inactive) | > 100 µM (inactive) | 65900 µM (inactive) | 55200 µM (inactive) | > 100 µM (inactive) | 26400 µM (inactive) | 9.48 µM (inactive) | > 100000 µM (inactive) | > 100 µM (inactive) | > 100 µM (inactive) | > 100 µM (inactive) | 99300 µM (inactive) | > 100 µM (inactive) | > 100 µM (inactive) | 48300 µM (inactive) | > 100 µM (inactive)
